Source: article PMC7139549, “TLD1433 Photosensitizer Inhibits Conjunctival Melanoma Cells in Zebrafish Ectopic and Orthotopic Tumour Models” (Cancers, 2020)
Like-named read-outs stand apart in the source and are kept apart here.

Assays:
[1] = system: CRMM1 engrafted cells in zebrafish orthotopic model; assay: In situ TUNEL assay, CRMM1 orthotopic zebrafish model; type: in vivo, Zebrafish (Danio rerio); conditions: RO 2.3 mM
Protocol: In situ TUNEL assay on fixed embryos was used to detect TLD1433 induced apoptosis in zebrafish CRMM1 and CRMM2 orthotopic tumour models at 4 dpi after light activation of 2.3 mM TLD1433, administrated by retro orbital injection. The DNA strand breaks in apoptotic tumour cells were stained with fluorescein and visualized as a green signal.
Figure 10 TUNEL assay of in CRMM1 and CRMM2 orthotopic model after RO of TLD1433. Red fluorescent CRMM1 (A) and CRMM2 (B) cells were injected at 2dpf behind the ZF eye and divided into four groups for drug treatment. RO administration of vehicle control and TLD1433 was performed as described in Figure 9C,E. After dark or light exposure (21 mW/cm^2, 114 J.cm^−2, 520 nm) embryos were fixed and TUNEL staining was performed. Representative images of embryos are shown in this figure. (A,B) In TLD1433 light groups nuclear DNA fragmentation by nucleases is detected by co-localization of green (DNA fragments) and red signal of engrafted CM cells, depicted as yellow signal and marked by white arrows. In control dark, control light, TLD1433 dark, there are no positive green apoptotic tumour cells observed. […] Experiment was performed 3 times with a group size of 10 embryos.
The zebrafish larvae were fixed overnight with 4% PFA at 4 °C. Embryos were washed in PBST for 5 min and dehydrated by a graded methanol series until reaching 100% methanol. […]

[2] = system: CRMM2 conjunctival melanoma cell line; assay: SRB cell viability assay, CRMM2; type: cell-based, Human
Protocol: TLD1433 is known to generate reactive oxygen species (ROS) with high quantum efficacy in many cancer cell lines. However, there is no report of the in vitro toxicity of this compound in eye melanoma (UM) cell lines. We determined the cell viability of three conjunctival melanoma cell lines (CRMM1, CRMM2 and CM2005.1), and three uveal melanoma cell lines (OMM1, OMM2.5, MEL270) in the presence of TLD1433, both in the dark or under green light irradiation (21 mW/cm^2, 19 J/cm^2, 520 nm, 15 min), and compared this viability to epidermoid carcinoma A431 and cutaneous melanoma A375 cell lines under the same conditions. The protocol used was based on previous work from the Bonnet group, and differed slightly from recommendations from McFarland et al.. […] The effective concentration (EC50) values, i.e., the concentration required to reduce cell viability by 50% compared to untreated wells, were assessed by fitting the dose-response curves with a Hill equation. The phototoxicity index (PI), defined as the ratio of the dark EC50 to the light EC50, was also calculated and represents the amplification of TLD1433 activity with a light trigger. […]
Figure 2 Cell viability after TLD1433 treatment of eight tumour cell lines (CRMM1, CRMM2, CM2005.1, OMM1, OMM2.5, MEL270, A431, A375). […] The absorbance of Sulforhodamine B in solution was measured at 520 nm. […]
At day 0, cells were detached using 1mL of trypsin, resuspended in 4 mL of media and transferred to a 15 mL corning falcon tube. Cells were counted using trypan blue and BioRad® TC20™ automated cell counter (Figure 11). Dilutions of 6000 (CRMM1), 6000 (CRMM2), 8000 (CM2005.1), 6000 (OMM1), 6000 (OMM2.5), 6000 (MEL270) 8000 (A431), and 4000 (A375) cells/well were calculated from each cell suspension at a final volume of 6 mL using the following formula: Vc=(Vt×10C)/Lc where Vt = total volume of solution, C = number of cells per well/per 100 μL and Lc = live cells count (cells/mL). […] Next day, the dye was dissolved using Tri-base (0.25%) and absorbance of SRB at 510 nm was recorded from each well using a Tecan plate reader. […]

In the case of Cc1ccnc(-c2cc(C)ccn2)c1.Cc1ccnc(-c2cc(C)ccn2)c1.[Cl-].[Cl-].[Ru+2].c1csc(-c2ccc(-c3ccc(-c4nc5c6cccnc6c6ncccc6c5[nH]4)s3)s2)c1 [TLD1433], the “TUNEL apoptosis of engrafted cells (in words)” value ([1]; dark, 4 dpi) is reported as “no positive green signal detected”, the “TUNEL apoptosis of engrafted cells (in words)” value ([1]; light 114 J.cm^−2, 4 dpi) is reported as “induced CRMM1 and CRMM2 cell apoptosis” and the EC50 ([2]; CRMM2, dark, 24 h treatment, SRB, read-out: EC50, dark) is reported as 1000 nM. For the same molecule, the EC50 ([2]; CRMM2, green light 520 nm, 15 min, 21 mW/cm^2, 19 J.cm^−2, DLI 24 h, read-out: EC50,light) was 4.8 nM and the “PI (photo index)” value ([2]; CRMM2, ratio of dark and light EC50, 19 J.cm^−2 green light) was 210.
